# Measured values taken from patent US20140050779A1, “[…]-2 INHIBITORS AND USES THEREOF” (SINGAPORE HEALTH SERVICES PTE. LTD., priority 2011, published 2014).
# “Also recorded” adds a separate entry of the source.
# Assays:
# Assay type in all cases: cell-based
# [1] = test system: cultured SF cells; assay: effect of TG-2 inhibitors on cultured scleral fibroblast growth (XCELLigence)
# Experimental: (§1) To test the effect of TG-2 inhibitors on cultured scleral fibroblast growth, cultured SF cells at passage 4 were treated with TG-2 inhibitors at baseline, 0.1, 1, 10 and 100 μM for 5 days. The SF cell growth was monitored by XCELLigence cell impedance.
# [2] = test system: human SF; assay: as above
# Experimental: as §1
# [3] = test system: mouse SF; assay: as above
# Experimental: as §1
# [4] = test system: TGase 5 transcript; assay: qPCR of TGases mRNA in mouse scleral fibroblasts after muscarinic agents; settings: 0.01-10 μM for 5 days, qPCR normalized to GAPDH
# Experimental: (§2) P2 cultured mouse scleral fibroblasts were treated with atropine or carbachol at different concentrations of 0.01 μM, 0.1 μM, […], 5 μM and 10 μM for 5 days. Following 5 days of treatment, the total RNA was extracted from these cells and TGases transcript level was quantified via qPCR analysis. Height of bars show the means of three independent samples and error bars represent standard deviation. Values are normalized against GAPDH house keeping genes.
# (§3) All cells used in examples described herein were between passages 2-4. Passaged cells were plated at a concentration of 2×10^5/mL into 6 well plates containing DMEM with 10% FBS. The cells were seen to attach to the bottom of the culture wells after 4 hours. Old media was removed from wells and 1 mL of drug was added with fresh full medium and incubated at 37° C. Fresh drugs were replaced daily consecutively for the next 5 days to avoid oxidation. The drugs/media was removed and wells were washed twice with 1×PBS. 200 μl of RIPA lysis buffer was added per well and incubated for 5 minutes and cells were scrapped into an eppendorf tube. The cells were stored at −20° C. until sonication. The cells were sonicated on ice thrice at 20% output power for 5 seconds each time and rested 1 minute in between each turn. Cell debris was spun down at 12000 rpm for 20 minutes. The supernatant was poured into a new eppendorf tube and cell concentrations were determined using the Dc Protein assay Kit (Bio-Rad, MA). Passaged cells were plated at a concentration of 1×10^5 into 6 well plates containing DMEM with 10% FBS. The cells were seen to attach to the bottom of the culture wells after 4 hours. Freshly prepared muscarinic agents' at base line, 0.1, 1, 10 and 100 μM concentrations were added for 5 days (Table 2). The culture medium was removed and fresh medium containing the same muscarinic drug added every day to avoid drug changes such as atropine oxidation. Cell lysate was collected for relative quantitative (q) PCR and protein analysis at day 5.
# (§4) Total RNA was isolated from cultured human and mouse scleral fibroblasts using TRIzol reagent (Invitrogen life technologies, USA) in accordance with the manufacturer's instructions Chomczynski P, Sacchi N., “Single-step method of RNA isolation by acid guanidinium thiocyanate-phenol-chloroform extraction”, Anal. Biochem. 1987 April; 162(1):156-9. Genomic DNA was removed by digestion with DNase I (Amp Grade; Invitrogen-Gibco) for 15 minutes at room temperature. One microgram of total RNA was reverse-transcribed with random hexamers by using a first-strand cDNA synthesis kit (Invitrogen-Gibco). qPCR was performed in a 384-well plate format on an Roche 480 LightCycler Detection System (Roche Applied Science, Mannheim, Germany) with efficiency corrected software 4.0. PCR was performed using 50 ng of cDNA of each sample. The pre-validated hydrolysis probes for TG-2 were from human and mouse universal probe library (Roche, CA) and the primers for human and mouse are shown in Table 3. GAPDH Internal Standard (Roche) was used as an endogenous control. To standardize and evaluate scleral gene expression, aliquots of the same cDNA (50 ng) preparation were used as templates in all PCR reactions. The data was analyzed by comparative CT (MCT) method as previously described in Brink N, Szamel M, Young A R, Wittern K P, Bergemann J., “Comparative quantification of IL-1, IL-10, Il-10r, TNF and IL-7 mRNA levels in UV-irradiated human skin in vivo”, Inflamm Res. 2000 June; 49(6):290-6.
# [5] = test system: TGase-3 transcript; assay: as above; settings: 0.01-10 μM for 5 days, qPCR normalized to GAPDH
# Experimental: as §2, §3, §4
# [6] = test system: TGase 1 transcript; assay: as above; settings: 0.01-10 μM for 5 days, qPCR normalized to GAPDH
# Experimental: as §2, §3, §4
# [7] = test system: TG-2; assay: TG-2 colorimetric microassay (transamidase activity) in lysate of treated mouse scleral fibroblasts; settings: murine scleral derived fibroblasts, 0.01-10 μM for 5 days
# [8] = test system: TG-5; assay: Western blot of TG proteins in human scleral fibroblasts after muscarinic agents; settings: 0.01-10 μM for 5 days
# [9] = test system: TGase 2 (TGM-2) transcript; assay: qPCR of TGases mRNA in mouse scleral fibroblasts after muscarinic agents; settings: 0.01-10 μM for 5 days, qPCR normalized to GAPDH
# Experimental: as §2
# Murine scleral derived fibroblasts were cultured to passage 2 and treated to exogenous atropine or carbachol at 0.01 μM, 0.1 μM, 1 μM, 5 μM and 10 μM for 5 days. Following 5 days of treatment, the total RNA was extracted from these cells and RT-qPCR performed to determine transcript levels of TGM-2. The levels were normalized to GAPDH internal control. […] Height of bars or symbols represents mean and error bars SD. *: p<0.05 and **: p<0.001.
# All cells used in examples described herein were between passages 2-4. Passaged cells were plated at a concentration of 2×10^5/mL into 6 well plates containing DMEM with 10% FBS. The cells were seen to attach to the bottom of the culture wells after 4 hours. […] The supernatant was poured into a new eppendorf tube and cell concentrations were determined using the Dc Protein assay Kit (Bio-Rad, MA). […] Cell lysate was collected for relative quantitative (q) PCR and protein analysis at day 5. […]
# [10] = test system: TG-5; assay: Western blot of TG proteins in mouse scleral fibroblasts after muscarinic agents; settings: 0.01-10 μM for 5 days
# [11] = test system: TG-3; assay: Western blot of TG proteins in human scleral fibroblasts after muscarinic agents; settings: 0.01-10 μM for 5 days
# [12] = test system: TG-1; assay: as above; settings: 0.01-10 μM for 5 days
# [13] = test system: TG-3; assay: Western blot of TG proteins in mouse scleral fibroblasts after muscarinic agents; settings: 0.01-10 μM for 5 days
# Experimental: as §3
# (§5) The cells were lysed by sonification in 1×RIPA lysis buffer (santa cruz biotechnology, Sc-24948) with 10 μl PMSF solution, 10 μl sodium orthovanadate solution and 20 μl protease inhibitor cocktail solution. After centrifugation at 20,000×g at 4° C. for 20 minutes, and the supernatant collected. The protein content in the supernatants was measured using the DC Protein Assay kit (Bio-Rad, MA) following the manufacturer's instructions. Samples were stored at −80° C. until assayed.
# (§6) The mouse and human scleral fibroblasts were treated with atropine or carbachol at 0.01, 0.1, 1, 5 and 10 μM concentrations for 5 days. Following 5 days of treatment, the total cellular protein was extracted from these cells and TG proteins detected via Western blot analysis.
# (§7) Human and, mouse scleral fibroblast proteins in the supernatant were separated by SDS-PAGE, transferred to nitrocellulose membranes, blocked in 5% BSA in TBST (10 mM Tris-HCl [pH 8.0], 150 mM NaCl, and […] Tween-20) for 2 hours at room temperature, and incubated with the same anti-TG-2 antibody described herein at a dilution of 1:1000 and anti β-tubulin antibodies used as a positive control, for 1 hour at room temperature. The membranes were washed 3 times in TBST and incubated with HRP-conjugated secondary antibody (Chemicon International) at a dilution of 1:2500 for 1 hour at room temperature. Immunoreactive bands were visualized using the enhanced chemiluminescence method (GE Healthcare, Buckinghamshire, UK). The membrane was wrapped in plastic and placed against an X-ray film to expose for an appropriate length of time (30 seconds-5 minutes).
# [14] = test system: TG-2; assay: as above; settings: 0.01-10 μM for 5 days, Western blot
# Experimental: as §3, §5, §6, §7
# [15] = test system: TG-1; assay: as above; settings: 0.01-10 μM for 5 days
# Experimental: as §3, §5, §6, §7
TGase-3 transcript level [5],transamidase (cross-linking) activity of TG-2 [7],SMILES,effect of the higher concentrations on SF cells [1],concentration at which effective on SF cell growth [2],concentration at which effective on SF cell growth [3],TGase 5 transcript level [4],TGase 1 transcript level [6],TG-5 protein level [8],TGase 2 (TGM-2) transcript level [9],TG-5 protein level [10],TG-3 protein level [11],TG-1 protein level [12],TG-3 protein level [13],TG-2 protein level [14],TG-1 protein level [15]
–,–,"CN(C)c1cccc2c(S(=O)(=O)NCCCCCN)cccc12 [MDC, Monodansyl caderverine]",cell death and morphological change,10 µM,50 µM,–,–,–,–,–,–,–,–,–,–
opposite findings,opposite effects,C[N+](C)(C)CCOC(N)=O [carbachol],–,–,–,increased only by relatively higher concentrations,increased only by relatively higher concentrations,the converse was true; also recorded: increased,opposite effect; also recorded: opposite findings,the converse was true; also recorded: increased,the converse observed; also recorded: decreased,the converse was true; also recorded: increased,the converse observed; also recorded: decreased,increased; also recorded: opposite effect,the converse was true; also recorded: increased
